Test results as given in ChEMBL document CHEMBL1201862, “PubChem BioAssay data set” (2004).
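Cells were grown in 96-well plates and exposed to each compound for 48 hours at five concentrations; endpoints were interpolated linearly between bracketing concentrations, or set to the highest concentration if not reached. GI50: concentration for 50% inhibition of growth.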 The source made the active and inactive calls. Cut-off read from the data, not from the text of the source: active = GI50 up to about 1.1 µM and inactive = higher.

How the values were obtained:
Experiment in all cases: DTP human tumour cell line panel, 48 h
Malme-3M = tested on: Malme-3M
RPMI-8226 = tested on: RPMI-8226
CAKI-1 = tested on: CAKI-1
U-251 = tested on: U-251
HOP-92 = tested on: HOP-92
RXF 393 = tested on: RXF 393
SW-620 = tested on: SW-620
MCF7 = tested on: MCF7
MDA-MB-231 = tested on: MDA-MB-231
SF-539 = tested on: SF-539
NCI-H522 = tested on: NCI-H522
MDA-MB-435 = tested on: MDA-MB-435
NCI-H226 = tested on: NCI-H226
SNB-19 = tested on: SNB-19
SR = tested on: SR
HL-60 = tested on: HL-60
T47D = tested on: T47D
NCI-H460 = tested on: NCI-H460
HCC 2998 = tested on: HCC 2998
OVCAR-5 = tested on: OVCAR-5

Compound	GI50 (Malme-3M)	GI50 (RPMI-8226)	GI50 (CAKI-1)	GI50 (U-251)	GI50 (HOP-92)	GI50 (RXF 393)	GI50 (SW-620)	GI50 (MCF7)	GI50 (MDA-MB-231)	GI50 (SF-539)	GI50 (NCI-H522)	GI50 (MDA-MB-435)	GI50 (NCI-H226)	GI50 (SNB-19)	GI50 (SR)	GI50 (HL-60)	GI50 (T47D)	GI50 (NCI-H460)	GI50 (HCC 2998)	GI50 (OVCAR-5)
C/C(=N\N=C(/[SeH])N1CC2CCC(CC2)C1)c1ccccn1	0.0506 µM (active)	< 0.01 µM (active)	0.293 µM (active)	0.091 µM (active)	0.169 µM (active)	0.0291 µM (active)	0.0139 µM (active)	< 0.01 µM (active)	0.115 µM (active)	0.251 µM (active)	0.161 µM (active)	0.119 µM (active)	0.43 µM (active)	0.2 µM (active)	0.0223 µM (active)	0.0166 µM (active)	0.0556 µM (active)	0.0568 µM (active)	0.243 µM (active)	0.179 µM (active)
CC1Oc2cc3c(-c4c(O)cc(O)c5c(O)c6c(cc45)OC(C)C(C)C6=O)c(O)cc(O)c3c(O)c2C(=O)C1C (stereo not given)	0.265 µM (active)	0.0489 µM (active)	0.231 µM (active)	0.038 µM (active)	0.184 µM (active)	0.0173 µM (active)	0.136 µM (active)	0.147 µM (active)	0.0925 µM (active)	0.15 µM (active)	0.343 µM (active)	0.24 µM (active)	0.0871 µM (active)	0.0832 µM (active)	0.054 µM (active)	0.24 µM (active)	0.259 µM (active)	0.0259 µM (active)	0.281 µM (active)	0.55 µM (active)
Nc1ccc(Oc2ccc(C34CC5CC(C3)CC(c3ccc(Oc6ccc(N)c(O)c6)cc3)(C5)C4)cc2)cc1O	1.85 µM (inactive)	2.54 µM (inactive)	1.93 µM (inactive)	1.36 µM (inactive)	1.98 µM (inactive)	1.41 µM (inactive)	2.89 µM (inactive)	2.49 µM (inactive)	1.57 µM (inactive)	2.13 µM (inactive)	1.54 µM (inactive)	1.89 µM (inactive)	3.1 µM (inactive)	1.52 µM (inactive)	0.424 µM (active)	2.12 µM (inactive)	1.76 µM (inactive)	1.75 µM (inactive)	1.47 µM (inactive)	2.05 µM (inactive)
COc1ccccc1C1ON=C(c2ccc([N+](=O)[O-])cc2)N1C12CC3CC(CC(C3)C1)C2 (stereo not given)	61.5 µM (inactive)	20.8 µM (inactive)	> 100 µM (inactive)	> 100 µM (inactive)	29.2 µM (inactive)	12.1 µM (inactive)	> 100 µM (inactive)	47.9 µM (inactive)	> 100 µM (inactive)	> 100 µM (inactive)	73.8 µM (inactive)	96.4 µM (inactive)	> 100 µM (inactive)	> 100 µM (inactive)	29.9 µM (inactive)	4.35 µM (inactive)	14 µM (inactive)	47.9 µM (inactive)	> 100 µM (inactive)	44.7 µM (inactive)
COC(=O)/C(C#N)=C/c1cc(C(C)(C)C)c(O)c(C(C)(C)C)c1	5.55 µM (inactive)	0.401 µM (active)	2.89 µM (inactive)	2.26 µM (inactive)	0.662 µM (active)	3.41 µM (inactive)	3.03 µM (inactive)	2.66 µM (inactive)	1.63 µM (inactive)	3.27 µM (inactive)	0.984 µM (active)	3.21 µM (inactive)	1.96 µM (inactive)	3.17 µM (inactive)	0.904 µM (active)	1.88 µM (inactive)	0.83 µM (active)	1.95 µM (inactive)	2.7 µM (inactive)	2.54 µM (inactive)
COC(=O)/C(=N\NC(N)=O)C(C(=O)C(=O)Nc1ccccc1OC)c1nc2ccc([N+](=O)[O-])cc2nc1O (stereo not given)	> 100 µM (inactive)	> 100 µM (inactive)	> 100 µM (inactive)	> 100 µM (inactive)	> 100 µM (inactive)	> 100 µM (inactive)	> 100 µM (inactive)	> 100 µM (inactive)	> 100 µM (inactive)	> 100 µM (inactive)	> 100 µM (inactive)	44.3 µM (inactive)	> 100 µM (inactive)	> 100 µM (inactive)	> 100 µM (inactive)	> 100 µM (inactive)	> 100 µM (inactive)	> 100 µM (inactive)	> 100 µM (inactive)	> 100 µM (inactive)
Cc1nn(C(=O)c2ccc(Cl)cc2)c2c1C(/C=C/c1ccccc1)SC(=N)N2 (stereo not given)	> 10 µM (inactive)	> 10 µM (inactive)	> 10 µM (inactive)	> 10 µM (inactive)	> 10 µM (inactive)	> 10 µM (inactive)	> 10 µM (inactive)	> 10 µM (inactive)	> 10 µM (inactive)	> 10 µM (inactive)	> 10 µM (inactive)	> 10 µM (inactive)	> 10 µM (inactive)	> 10 µM (inactive)	> 10 µM (inactive)	> 10 µM (inactive)	> 10 µM (inactive)	> 10 µM (inactive)	> 10 µM (inactive)	> 10 µM (inactive)
Clc1ccc2c(NC3CCC(N4CCCCC4)CC3)ccnc2c1 (stereo not given)	20.2 µM (inactive)	18.1 µM (inactive)	22.2 µM (inactive)	21 µM (inactive)	12.6 µM (inactive)	18.2 µM (inactive)	27.7 µM (inactive)	28.8 µM (inactive)	16.9 µM (inactive)	15.4 µM (inactive)	20.9 µM (inactive)	14.1 µM (inactive)	25.1 µM (inactive)	32.7 µM (inactive)	13.2 µM (inactive)	14.5 µM (inactive)	29.4 µM (inactive)	15 µM (inactive)	12.2 µM (inactive)	30.7 µM (inactive)
N#Cc1nc(C(F)(F)F)oc1N	> 100 µM (inactive)	> 100 µM (inactive)	> 100 µM (inactive)	> 100 µM (inactive)	> 100 µM (inactive)	> 100 µM (inactive)	> 100 µM (inactive)	> 100 µM (inactive)	> 100 µM (inactive)	> 100 µM (inactive)	66.1 µM (inactive)	> 100 µM (inactive)	> 100 µM (inactive)	> 100 µM (inactive)	> 100 µM (inactive)	> 100 µM (inactive)	> 100 µM (inactive)	> 100 µM (inactive)	> 100 µM (inactive)	> 100 µM (inactive)
Cc1nc(O)nc2nc3ccc(Cl)cc3c(NCCNCCO)c12	15.2 µM (inactive)	42.9 µM (inactive)	12.2 µM (inactive)	8.73 µM (inactive)	11.4 µM (inactive)	14.6 µM (inactive)	6.87 µM (inactive)	13.6 µM (inactive)	11.7 µM (inactive)	7.16 µM (inactive)	3.21 µM (inactive)	13 µM (inactive)	13.1 µM (inactive)	9.06 µM (inactive)	8.07 µM (inactive)	90.4 µM (inactive)	10.3 µM (inactive)	12.5 µM (inactive)	13.6 µM (inactive)	13.2 µM (inactive)
